Laboratory results reported in US8101761B2, “(E)-N-{3-[1-(8-fluoro-11H-10-OXA-1-AZA-dibenzo [A,D] cyclohepten-5ylidene)-propyl]-phenyl}-methanesulfonamide as glucocorticoid receptor modulator for the treatment of rheumatoid arthritis” (Eli Lilly and Company, priority 2008, dated 2012).

Molecular target: T1, human progesterone receptor (PR) (Homo sapiens, UniProt P06401)
T1 construct: expressed in transfected cells; host or cells: HEK293, transient transfection, CMV promoter plasmid
T1 sequence (P06401 1-933): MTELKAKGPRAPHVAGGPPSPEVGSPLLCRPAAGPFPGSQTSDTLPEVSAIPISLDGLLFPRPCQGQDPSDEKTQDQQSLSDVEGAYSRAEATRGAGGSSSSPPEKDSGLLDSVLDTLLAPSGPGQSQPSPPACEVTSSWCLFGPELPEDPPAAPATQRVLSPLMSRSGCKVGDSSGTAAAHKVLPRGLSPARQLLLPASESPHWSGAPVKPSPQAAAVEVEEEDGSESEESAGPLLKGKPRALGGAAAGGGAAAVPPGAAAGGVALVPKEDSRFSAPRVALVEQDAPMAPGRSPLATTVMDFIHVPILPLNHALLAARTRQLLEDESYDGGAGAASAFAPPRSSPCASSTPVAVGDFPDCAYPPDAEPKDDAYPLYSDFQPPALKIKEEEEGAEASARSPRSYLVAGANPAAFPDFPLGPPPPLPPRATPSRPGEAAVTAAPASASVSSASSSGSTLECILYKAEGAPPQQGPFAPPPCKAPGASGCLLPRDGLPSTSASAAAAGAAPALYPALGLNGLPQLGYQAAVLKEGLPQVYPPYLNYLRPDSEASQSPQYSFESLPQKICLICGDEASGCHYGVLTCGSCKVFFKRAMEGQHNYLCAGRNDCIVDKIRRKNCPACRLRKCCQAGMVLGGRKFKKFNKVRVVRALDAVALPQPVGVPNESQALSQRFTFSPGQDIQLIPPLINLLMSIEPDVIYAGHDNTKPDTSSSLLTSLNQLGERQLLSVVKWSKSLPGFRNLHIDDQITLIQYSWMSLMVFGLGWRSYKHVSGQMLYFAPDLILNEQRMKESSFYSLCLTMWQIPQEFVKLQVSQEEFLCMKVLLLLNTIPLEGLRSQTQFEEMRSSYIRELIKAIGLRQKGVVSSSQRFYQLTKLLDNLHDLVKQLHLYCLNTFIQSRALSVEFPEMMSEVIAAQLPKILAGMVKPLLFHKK
Test: Nuclear hormone receptor functional modulation assay (GRE-luciferase reporter, HEK293), PR
Type: cell-based
Conditions: agonist mode, mean of n=4 or 5
Text: The solvents, reagents, and ligands employed in the functional assay are readily available from commercial sources, or can be prepared by one of ordinary skill in the art.
Human embryonic kidney HEK293 cells are transfected with steroid hormone receptor and reporter gene plasmids using Fugene™ transfection reagent. Briefly, the reporter plasmid containing two copies of probasin ARE and TK(thymidine kinase) promoter upstream of the luciferase reporter cDNA, is transfected into HEK293 cells with a plasmid constitutively expressing human androgen receptor (AR) using viral CMV(cytomegalovirus) promoter. The reporter plasmid containing two copies of GRE and TK promoter upstream of the luciferase reporter cDNA is transfected with a plasmid constitutively expressing either human glucocorticoid receptor (GR), human mineralocorticoid receptor (MR), or human progesterone receptor (PR) using viral CMV promoter. […] After 24-hours incubation with test compounds, cells are lysed and luciferase activity is determined using standard techniques.
Data are fitted to a four parameter-fit logistic curve fit to determine EC50 values. […] IC50 values may be determined similarly using antagonist mode assay data. Percent inhibitions may also be determined relative to the response in the presence of agonist alone, as described above.

efficacy in activating transcription, PR (relative to 30 nM promegestone): about 54%
EC50 (read-out: EC50 in activating transcription, PR): > 10 µM
Compound: CC/C(=C1\c2ccc(F)cc2OCc2ncccc21)c1cccc(NS(C)(=O)=O)c1 [Compound (I), (E)-N-{3-[1-(8-Fluoro-11H-10-oxa-1-aza-dibenzo[a,d]cyclohepten-5-ylidene)-propyl]-phenyl}-methanesulfonamide]
